{"source": "paper PMC7248707", "about": "(Molecules, 2020)", "key": {"[1]": {"details": "cited from earlier work"}, "rat MOR": {"target": "rat MOR", "parameters": "method as in PMID 2537427", "details": "rat brain tissue; cited from earlier work"}, "human MOR [2]": {"target": "T1, human MOR (Homo sapiens, UniProt P35372)", "T1 sequence (P35372 whole entry)": "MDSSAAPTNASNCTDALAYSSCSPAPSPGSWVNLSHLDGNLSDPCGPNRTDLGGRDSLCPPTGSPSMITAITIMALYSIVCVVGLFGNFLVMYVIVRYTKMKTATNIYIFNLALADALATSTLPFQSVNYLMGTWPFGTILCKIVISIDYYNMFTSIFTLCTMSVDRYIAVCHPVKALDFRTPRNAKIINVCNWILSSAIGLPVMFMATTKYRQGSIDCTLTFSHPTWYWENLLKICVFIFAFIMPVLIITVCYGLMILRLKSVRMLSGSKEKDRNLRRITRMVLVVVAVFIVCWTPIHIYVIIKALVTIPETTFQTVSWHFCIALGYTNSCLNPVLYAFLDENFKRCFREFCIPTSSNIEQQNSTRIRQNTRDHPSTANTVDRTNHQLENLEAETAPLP"}, "human MOR [3]": {"target": "T1, human MOR", "remark": "listed apart in the source"}, "MOR": {"tested_on": "MOR", "details": "read-out: IC50 in the GPI bioassay; cited from earlier work"}}, "data": [{"smiles": "NCCCC[C@H](NC(=O)[C@H](Cc1ccccc1)NC(=O)[C@@H](CCCN=C(N)N)NC(=O)[C@@H](N)Cc1ccc(O)cc1)C(N)=O", "note": "[DALDA, H-Tyr-D-Arg-Phe-Lys-NH2]", "values": [{"measurement": "BBB crossing / CNS entry", "setting": "[1]", "value": "does not cross the BBB"}, {"measurement": "Ki", "setting": "rat MOR", "value": 1.69, "unit": "nM"}]}, {"smiles": "Cc1cc(O)cc(C)c1C[C@H](N)C(=O)N[C@H](CCCNC(=N)N)C(=O)N[C@H]1Cc2ccccc2CN(CCC(N)=O)C1=O", "note": "[KGOP01]", "values": [{"measurement": "BBB crossing / CNS entry", "setting": "[1]", "value": "can enter the CNS"}, {"measurement": "better MOR affinity than DAMGO", "setting": "human MOR [2]; relative to DAMGO", "value": 13, "unit": "fold"}, {"measurement": "increase in MOR affinity versus [Dmt^1]DALDA", "setting": "human MOR [2]; relative to [Dmt^1]DALDA", "value": "ca. 2 fold"}, {"measurement": "enhanced MOR agonist potency versus [Dmt^1]DALDA", "setting": "human MOR [3]", "value": 5, "unit": "fold"}, {"measurement": "EC50", "setting": "human MOR [3]; read-out: Agonist Activity EC50", "value": "0.1 ± 0.02", "unit": "nM"}, {"measurement": "IC50", "setting": "MOR", "value": 0.8, "unit": "nM"}]}]}
